According to ChEMBL document CHEMBL1146834, “1-Azakenpaullone is a selective inhibitor of glycogen synthase kinase-3 beta” (Bioorg Med Chem Lett, 2004):

Experiments:
[1] = target: Cyclin-dependent kinase 1/cyclin B (Homo sapiens, UniProt P06493); test: Inhibition of human cyclin-dependent kinase 1-cyclin B; assay type: protein-complex assay
Homo sapiens = organism: Homo sapiens; test: Relative inhibition of human CDK-1 and GSK3-beta
[2] = target: Cyclin-dependent kinase 5/CDK5 activator 1 (Homo sapiens, UniProt Q00535); test: Inhibition of human Cyclin-dependent kinase 5-p35nck5a; assay type: protein-complex assay
[3] = target: Glycogen synthase kinase-3 beta (Homo sapiens, UniProt P49841)
Chain of Glycogen synthase kinase-3 beta (P49841 whole entry): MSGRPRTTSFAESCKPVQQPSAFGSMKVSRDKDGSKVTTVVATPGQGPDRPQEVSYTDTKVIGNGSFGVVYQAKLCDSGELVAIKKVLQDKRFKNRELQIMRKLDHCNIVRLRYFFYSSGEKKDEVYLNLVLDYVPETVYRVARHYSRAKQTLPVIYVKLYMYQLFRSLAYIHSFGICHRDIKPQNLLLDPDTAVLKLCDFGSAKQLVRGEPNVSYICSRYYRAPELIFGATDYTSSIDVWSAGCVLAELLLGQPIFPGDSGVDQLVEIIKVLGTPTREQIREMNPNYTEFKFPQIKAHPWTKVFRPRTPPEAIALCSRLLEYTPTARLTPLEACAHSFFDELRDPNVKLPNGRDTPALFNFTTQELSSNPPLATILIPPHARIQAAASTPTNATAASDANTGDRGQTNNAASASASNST
Description: Inhibition of human glycogen synthase kinase-3 beta

Chain of Cyclin-dependent kinase 5/CDK5 activator 1 (Q00535 whole entry): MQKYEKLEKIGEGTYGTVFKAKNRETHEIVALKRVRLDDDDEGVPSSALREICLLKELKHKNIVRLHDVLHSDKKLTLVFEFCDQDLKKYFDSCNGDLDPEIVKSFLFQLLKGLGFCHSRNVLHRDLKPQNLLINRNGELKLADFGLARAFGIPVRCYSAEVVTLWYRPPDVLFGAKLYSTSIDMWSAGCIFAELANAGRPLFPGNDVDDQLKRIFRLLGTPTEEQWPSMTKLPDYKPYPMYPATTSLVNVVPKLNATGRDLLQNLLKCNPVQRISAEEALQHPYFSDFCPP
Chain of Cyclin-dependent kinase 5/CDK5 activator 1 (Q15078 whole entry, further chain): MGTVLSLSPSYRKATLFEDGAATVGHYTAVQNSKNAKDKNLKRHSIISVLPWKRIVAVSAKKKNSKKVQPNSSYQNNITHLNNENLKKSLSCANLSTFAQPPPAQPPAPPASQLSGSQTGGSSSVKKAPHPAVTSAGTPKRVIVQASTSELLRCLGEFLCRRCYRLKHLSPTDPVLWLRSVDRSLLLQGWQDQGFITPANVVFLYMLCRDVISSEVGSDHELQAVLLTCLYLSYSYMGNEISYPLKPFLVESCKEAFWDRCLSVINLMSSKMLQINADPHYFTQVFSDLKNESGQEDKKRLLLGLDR

O=C1Cc2c([nH]c3ccc(Br)cc23)-c2ncccc2N1 [AZAKENPAULLONE]
IC50 [1]: 2000 nM

CC(C)c1c(-c2ccc(Cl)cc2)[nH]c2nccnc12
Selectivity index (Homo sapiens): 1.1

NC1=NC(=O)/C(=C2\CCNC(=O)c3[nH]c(Br)cc32)N1 [HYMENIALDISINE]
IC50 [2]: 28 nM | IC50 [1]: 22 nM

O=Nc1c(-c2c(O)[nH]c3ccc(I)cc23)[nH]c2ccccc12
IC50 [2]: 20 nM | IC50 [1]: 25 nM

O=C1Cc2c([nH]c3ccc(Br)cc23)-c2cccnc2N1
IC50 [2]: 12000 nM | IC50 [1]: 8400 nM | IC50 [3]: 6000 nM | Selectivity index (Homo sapiens): 1.4
